Test results: PMC12652692, “Synthesis and In Vitro Anticancer Evaluation of Novel Phosphonium Derivatives of Chrysin” (International Journal of Molecular Sciences, 2025)

What was measured:
Format in all cases: cell-based
U251 = experiment: NCI60 one-dose screen; conditions: Homo sapiens, U-251; U251, 10 μM; read-out: Growth percent
In short: (§1)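 A single 10 µM concentration was applied for 48 h in RPMI 1640 medium with 5% FBS at 37 °C. Values are growth percentages on a scale where 100 means no inhibition and negative numbers mean lethality.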

SN12C = experiment: NCI60 one-dose screen; conditions: Homo sapiens, read-out: Growth percent
In short: as §1

DU-145 = experiment: NCI60 one-dose screen; conditions: Homo sapiens; DU-145, 10 μM; read-out: Growth percent
In short: as §1

HCC-2998 = experiment: NCI60 one-dose screen; conditions: Homo sapiens; HCC-2998, 10 μM; read-out: Growth percent
In short: as §1

CAKI-1 = experiment: NCI60 one-dose screen; conditions: Homo sapiens; CAKI-1, 10 μM; read-out: Growth percent
In short: as §1

M14 = experiment: NCI60 one-dose screen; conditions: Homo sapiens; M14, 10 μM; read-out: Growth percent
In short: as §1

MDA-MB-231/ATCC = experiment: NCI60 one-dose screen; conditions: Homo sapiens, read-out: Growth percent
In short: as §1

KM12 = experiment: NCI60 one-dose screen; conditions: Homo sapiens; KM12, 10 μM; read-out: Growth percent
In short: as §1

ACHN = experiment: NCI60 one-dose screen; conditions: Homo sapiens, read-out: Growth percent
In short: as §1

HOP-62 = experiment: NCI60 one-dose screen; conditions: Homo sapiens; HOP-62, 10 μM; read-out: Growth percent
In short: as §1

SNB-75 = experiment: NCI60 one-dose screen; conditions: Homo sapiens; SNB-75, 10 μM; read-out: Growth percent
In short: as §1

SF-539 = experiment: NCI60 one-dose screen; conditions: Homo sapiens; SF-539, 10 μM; read-out: Growth percent
In short: as §1

HL-60(TB) = experiment: NCI60 one-dose screen; conditions: Homo sapiens, read-out: Growth percent
In short: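 Each cell line received a single 10 µM dose. Cells were fixed with cold TCA after 48 h, stained with 0.4% SRB, and read at 515 nm, with percent growth normalised to the control and time-zero plates.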

OVCAR-5 = experiment: NCI60 one-dose screen; conditions: Homo sapiens; OVCAR-5, 10 μM; read-out: Growth percent
In short: as §1

786-0 = experiment: NCI60 one-dose screen; conditions: Homo sapiens; 786-0, 10 μM; read-out: Growth percent
In short: as §1

UO-31 = experiment: NCI60 one-dose screen; conditions: Homo sapiens; UO-31, 10 μM; read-out: Growth percent
In short: as §1

LOX IMVI = experiment: NCI60 one-dose screen; conditions: Homo sapiens, read-out: Growth percent
In short: as §1

MDA-MB-468 = experiment: NCI60 one-dose screen; conditions: Homo sapiens; MDA-MB-468, 10 μM; read-out: Growth percent
In short: as §1

[1] = tested on: 60 human cancer cell lines; experiment: NCI60 one-dose screen, overall mean; conditions: mean over all 60 cell lines, read-out: Mean growth percent
Protocol: The screening results are presented in the Supplementary Materials (Table S1), where the cytotoxicity was determined for the 10 µM concentration. […] The negative numbers indicate significant decreases in the cell number. […] Compared to the reference chrysin (2), all phosphonium hybrids (3a–h) had significant antiproliferative activities. […] At the same time, it should be noted that more than 60% average reduction was also obtained in the case of the other examined conjugates (3a–h).
A detailed description of the NCI screening procedures, including the one-dose and five-dose tests, can be found in the Supplementary Materials, on the website of NCI [39], and in our previous work.
A detailed description of the NCI screening procedures can also be found on the website of NCI [39], and in our […]
All candidates were examined at first at a single high dose (10 μM) in the full NCI60 cell panel. The value reported for the one-dose test is growth relative to the no-drug control and relative to the time zero number of cells. This made possible the disclosure of both growth inhibition (numbers between 0 and 100) and lethality (numbers less than 0). For example, a value of 100 means no growth inhibition. A value of 20 would mean 80% growth inhibition. A value of 0 means no net growth over the course of the analysis. A value of −20 would mean 20% lethality. A value of −100 means all cells are dead. […]
concentration levels. The human tumor cell lines of the cancer screening panel were grown in RPMI 1640 medium containing 5% fetal bovine serum and 2 mM l-glutamine. Characteristically, cells were injected in 96-well microtiter plates in 0.1 mL at plating densities ranging from 5000 to 40,000 cells/well, depending on the doubling time of individual cell lines. After cell inoculation, the microtiter plates were incubated at 37 °C, 5% carbon dioxide, 95% air, and 100% relative humidity for 24 hours before the addition of tested compounds. After 24 hours, 2 plates of each cell line were fixed in situ with Cl3COOH (TCA), to represent a measurement of the cell population for each cell line at the time of drug addition (tz). Tested compounds were solubilized in DMSO at 400-fold the desired final maximum test concentration and stored frozen before application. In the course of the drug addition, an aliquot of frozen concentrate was thawed and diluted to twice the desired final maximum test concentration with a complete medium containing 50 μg mL−1 gentamicin. Additional four, 10-fold or ½ log serial dilutions were produced to furnish a total of five drug concentrations plus control. Aliquots of 0.1 mL of these different drug dilutions were added to the appropriate microtiter wells already containing 0.1 mL of medium, resulting in the required final drug concentrations.
Following drug addition, the plates were incubated at 37 °C, 5% carbon dioxide, 95% air, and 100% relative humidity for an additional 48 hours. For adherent cells, the test was finished by the addition of cold Cl3COOH. Cells were fixed in situ by the addition of 50 μL of cold 50% (w/v) Cl3COOH, and incubated at 4 °C for 1 hour. The supernatant was discarded, and the plates were washed with H2O (5×) and dried in air. Sulforhodamine B (SRB) solution (0.1 mL) at 0.4% (w/v) in 1% CH3COOH was added to each well, and plates were incubated at RT for 10 min. After staining, the unbound dye was removed by washing five times with 1% CH3COOH, and the plates were dried in the air. The bound stain is afterward solubilized with a 10 mM trizma base, and the absorbance is read on an automated plate reader at λ = 515 nm. Utilizing the seven absorbance measurements [time zero (tz), control growth (c), and test growth in the presence of the drug at the five concentration levels (ti)], the percentage growth was determined at each of the drug concentration levels. Growth inhibition (%) was calculated as:
[(ti − tz)/(c − tz)] × 100, for concentrations where ti ≥ tz (1) […]

COc1c(C)cc([P+](CCCCOc2cc(O)c3c(=O)cc(-c4ccccc4)oc3c2)(c2cc(C)c(OC)c(C)c2)c2cc(C)c(OC)c(C)c2)cc1C [3f]
activity at 10 µM (U251): -76.6% | activity at 10 µM (SN12C): -77.4% | activity at 10 µM (DU-145): -92.7% | activity at 10 µM (HCC-2998): -73.5% | activity at 10 µM (CAKI-1): -51.6% | activity at 10 µM (M14): -68.3% | activity at 10 µM (MDA-MB-231/ATCC): -74.8% | activity at 10 µM (KM12): -82.3% | activity at 10 µM (ACHN): -88.4% | activity at 10 µM (HOP-62): -25.2% | activity at 10 µM (SNB-75): -71% | activity at 10 µM (SF-539): -89.2% | activity at 10 µM (HL-60(TB)): -27.7% | activity at 10 µM (OVCAR-5): -87.8% | activity at 10 µM (786-0): -47% | activity at 10 µM (UO-31): -59.6% | activity at 10 µM (LOX IMVI): -68.7% | activity at 10 µM (MDA-MB-468): -76% | activity at 10 µM [1]: -63.4%

O=c1cc(-c2ccccc2)oc2cc(OCCCC[P+](c3ccccc3)(c3ccccc3)c3ccccn3)cc(O)c12 [3h]
activity at 10 µM (U251): -96% | activity at 10 µM (SN12C): -91.4% | activity at 10 µM (DU-145): -95.3% | activity at 10 µM (HCC-2998): -88.5% | activity at 10 µM (CAKI-1): -71.2% | activity at 10 µM (M14): -84.3% | activity at 10 µM (MDA-MB-231/ATCC): -94.3% | activity at 10 µM (KM12): -94.6% | activity at 10 µM (ACHN): -98% | activity at 10 µM (HOP-62): -57% | activity at 10 µM (SNB-75): -47.3% | activity at 10 µM (SF-539): -96.5% | activity at 10 µM (HL-60(TB)): 0.68% | activity at 10 µM (OVCAR-5): -93.4% | activity at 10 µM (786-0): -74.5% | activity at 10 µM (UO-31): -94% | activity at 10 µM (LOX IMVI): -84.1% | activity at 10 µM (MDA-MB-468): -90.7% | activity at 10 µM [1]: -72.3%

O=c1cc(-c2ccccc2)oc2cc(O)cc(O)c12 [compound 2, 5,7-dihydroxyflavone, reference compound]
activity at 10 µM (U251): 80.7% | activity at 10 µM (SN12C): 85.8% | activity at 10 µM (DU-145): 92% | activity at 10 µM (HCC-2998): 103% | activity at 10 µM (CAKI-1): 83.6% | activity at 10 µM (M14): 107% | activity at 10 µM (MDA-MB-231/ATCC): 82.6% | activity at 10 µM (KM12): 92.9% | activity at 10 µM (ACHN): 85% | activity at 10 µM (HOP-62): 113% | activity at 10 µM (SNB-75): 89% | activity at 10 µM (SF-539): 92.2% | activity at 10 µM (HL-60(TB)): 116% | activity at 10 µM (OVCAR-5): 99.1% | activity at 10 µM (786-0): 99.2% | activity at 10 µM (UO-31): 89.4% | activity at 10 µM (LOX IMVI): 85.1% | activity at 10 µM (MDA-MB-468): 91.1% | activity at 10 µM [1]: 96.1%
